For one experiment, the target named is T1, androgen receptor (Rattus norvegicus, UniProt P15207).
T1 construct: from tissue; host or cells: ventral prostate cytosol of gonadectomized male Sprague-Dawley rats
T1 sequence (P15207 1-902): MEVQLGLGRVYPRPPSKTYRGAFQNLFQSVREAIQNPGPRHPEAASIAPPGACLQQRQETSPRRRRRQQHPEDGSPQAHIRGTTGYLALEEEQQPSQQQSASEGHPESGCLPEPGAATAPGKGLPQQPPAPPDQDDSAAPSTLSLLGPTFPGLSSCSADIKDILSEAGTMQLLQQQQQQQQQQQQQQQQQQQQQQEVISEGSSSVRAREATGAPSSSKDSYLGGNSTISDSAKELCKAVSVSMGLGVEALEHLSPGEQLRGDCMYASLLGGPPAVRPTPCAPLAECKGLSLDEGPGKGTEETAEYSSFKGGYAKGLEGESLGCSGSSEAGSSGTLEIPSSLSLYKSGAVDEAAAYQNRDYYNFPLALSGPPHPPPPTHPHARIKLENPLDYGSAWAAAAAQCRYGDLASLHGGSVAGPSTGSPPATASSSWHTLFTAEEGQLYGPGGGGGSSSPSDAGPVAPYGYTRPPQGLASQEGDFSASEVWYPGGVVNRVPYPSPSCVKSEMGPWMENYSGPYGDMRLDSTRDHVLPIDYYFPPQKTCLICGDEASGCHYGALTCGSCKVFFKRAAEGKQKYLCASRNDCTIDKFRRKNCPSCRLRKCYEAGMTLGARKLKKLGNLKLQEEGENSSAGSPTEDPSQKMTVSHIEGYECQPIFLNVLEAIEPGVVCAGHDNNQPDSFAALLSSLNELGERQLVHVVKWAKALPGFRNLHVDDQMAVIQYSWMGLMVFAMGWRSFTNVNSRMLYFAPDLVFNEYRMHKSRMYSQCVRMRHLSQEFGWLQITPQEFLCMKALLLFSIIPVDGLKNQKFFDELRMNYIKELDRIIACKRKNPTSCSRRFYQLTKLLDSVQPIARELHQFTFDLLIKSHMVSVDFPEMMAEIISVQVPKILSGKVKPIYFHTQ
The experiment is described as follows: Androgen receptor (AR) assay: inhibition of [3H]R1881 binding, prostate cytosol. As to conditions: Table 4′; for inhibition at 1 µM: E^−6; for inhibition at 0.01 µM: E^−8. As to the method: The manner in which the percentage of inhibition is determined is described in “Other Tests; D-Androgen Receptor (AR) Assays”. Lower numbers are desirable.
Male Sprague-Dawley rats (Crl: CD(SD)Br) weighing 200-300 g were obtained from Charles-River Inc. (St-Constant, Québec, Canada). The rats were gonadectomized under general anesthesia (Isoflurane) and killed by cervical dislocation 24 hours later. The ventral prostates were rapidly removed, dissected free from adhering tissue and frozen on dry-ice. Prostates were kept at −80° C. until assay.
All subsequent steps were performed at 0-4° C. Prostates were homogenized in 5 vol (wt/vol) of buffer A (25 mM Tris-HCl, 1.5 mM EDTA disodium salt, 10 mM α-monothioglycerol, 10% glycerol, and 10 mM sodium molybdate, pH 7.4), using a Polytron PT-10 homogenizer (Brinkman Instruments, Canada) at a setting of 5 for three periods of 10 sec, with intervals of 10 sec for cooling. The homogenate was then centrifuged at 105,000×g for 60 min in a Beckman L5-65 ultracentrifuge (Fullerton, Calif.).
Androgen binding was measured using the hydroxylapatite assay (HAP). In brief, the radioactive steroid [^3H]R1881 solubilized in ethanol was diluted into buffer A. Aliquots of prostate cytosol preparation (0.1 ml) were then incubated with 8 nM [^3H]R1881 (0.1 ml, ˜200,000 cpm) in the presence or absence of the indicated concentrations of unlabeled compounds (0.1 ml, prepared in buffer A containing 10% ethanol) for 16-18 h at 0-4° C. […] Unbound steroids were separated by incubation for 40 min at 0-4° C. with 0.3 ml HAP prepared in buffer P (50 mM, Tris-HCl, 10 mM KH2PO4, pH 7.4) as follows: 10 g HAP were washed with buffer P until the supernatant reached a pH of 7.4 and then following centrifugation and decantation of the supernatant, 37.5 ml of buffer P were added. After incubation with HAP and 10 minutes of centrifugation at 1,000×g, the pellet was washed 3 times with 1 ml buffer P. Thereafter, the radioactivity was extracted from the pellet by incubation at room temperature for 60 minutes with 1 ml EtOH. After centrifugation, the supernatant was decanted into a scintillation vial and the pellet was extracted again with ethanol.

In the next experiment the test system is progesterone receptor. The experiment is described as follows: Progesterone receptor assay: inhibition of [3H]R5020 binding, uterine cytosol. Further details: species or system rat. As to conditions: Table 4′. The method, then: The manner in which the percentage of inhibition is determined is described in “Other Tests; E-Progesterone Receptor Assay”. Lower numbers are desirable.
[17α-methyl-^3H]-promegestone (R5020) (84 Ci/mmol) and the corresponding unlabeled compound were purchased from New England Nuclear (Lachine, Québec, Canada). All other chemicals were of analytical grade.
Stock solutions of the unlabeled steroids were kept at 4° C. in ethanol. The desired steroid solutions were then prepared by appropriate dilution in buffer B (10 mM Tris-HCl, 1.5 mM EDTA, 10 mM α-monothioglycerol, pH 7.4) containing 30% ethanol.
Female Sprague-Dawley rats weighing 200-300 g were obtained from Charles-River Inc. (St-Constant, Québec, Canada). The rats were gonadectomized under general anesthesia (Isoflurane) and killed by cervical dislocation 24 hours later. The uteri are rapidly removed, dissected free from adhering tissue and frozen on dry-ice. Tissues were kept at −80° C. until use.
All procedures were performed at 4° C. Tissues were pulverized frozen in dry ice with a Thermovac pulverizer. The samples were then homogenized in 10 vol (w/v) of buffer A (25 mM Tris-HCl, 1.5 mM EDTA, 10 mM α-monothioglycerol, 10% glycerol, 10 mM sodium molybdate, pH 7.4) using a Polytron PT-10 homogenizer (Brinkmann Instruments, Canada) at a setting of 5 for two periods of 10 sec, with intervals of 10 sec for cooling. The homogenate was then centrifuged at 105,000×g for 90 min. The supernatant was used immediately for assay.
Progesterone binding was measured using the dextran-coated charcoal adsorption technique. […] Each concentration was done in triplicate. Assay was ended with 300 μl of DCC (1% Norit A and 0.1% Dextran T-70 in Buffer B). After 10 min of incubation, tubes were centrifuged at 2,000×g for 10 min. and decanted in vials with 6 ml of BCS liquid scintillation (New England Nuclear, Dupont). The radioactivity was measured in a Beckman counter at a counting efficiency of 35%.

At androgen receptor, `COc1c(Br)cc2c(c1Br)CCC1C2CCC2(C)C1CCC21CCC(C)(C)C(=O)O1` (stereo not shown) [EM-1385-CS] displayed an inhibition at 1 µM of 0% and an inhibition at 0.01 µM of 0%. In the experiment with progesterone receptor, the “% Inhibition Progesterone Receptor E^−6” value came out at 2% and the “% Inhibition Progesterone Receptor E^−8” value turned out to be 2%.

For the molecule `COc1ccc2c(c1)C(=O)CC1C3CCC4(CCC(C)(C)C(=O)O4)C3(C)CCC21O` (stereo not shown) [EM-1386], on androgen receptor, the inhibition at 1 µM is 0% and 0.01 µM produced 0% inhibition. Besides, in the experiment on progesterone receptor, the “% Inhibition Progesterone Receptor E^−6” value is 0% and the “% Inhibition Progesterone Receptor E^−8” value was determined as 0%.

On to `CN(C)CCOc1ccc2c(c1)CCC1C2CCC2(C)C1CCC21CCC(C)(C)C(=O)O1` (stereo not shown) [EM-1389-CS], for which, on androgen receptor, the inhibition at 1 µM stood at 0% and the inhibition at 0.01 µM stood at 0%. In the experiment with progesterone receptor, the “% Inhibition Progesterone Receptor E^−6” value came out at 0% and the “% Inhibition Progesterone Receptor E^−8” value is 3%.

At androgen receptor, `CC1(C)CCC2(CCC3C4CCc5cc(OCCN6CCCCC6)ccc5C4CCC32C)OC1=O` [EM-1390-CS, 3-(N-piperidyl-ethyl)-1,3,5(10)-estratrien-17(R)-spiro-2′-(5′,5′-dimethyl-6′-oxo)-tetrahydropyran] returned an inhibition at 1 µM of 0% and an inhibition at 0.01 µM of 0%. For the same molecule, in the experiment with progesterone receptor, the “% Inhibition Progesterone Receptor E^−6” value is listed as 2% and the “% Inhibition Progesterone Receptor E^−8” value was determined as 0%.

At androgen receptor, `CC1(C)CCC2(CCC3C4CCc5c(cc(Cl)c(O)c5Cl)C4CCC32C)OC1=O` (stereo not shown) [EM-1391-CS] gave an inhibition at 1 µM of 0% and an inhibition at 0.01 µM of 0%. Also, in the experiment on progesterone receptor, the “% Inhibition Progesterone Receptor E^−6” value was determined as 1% and the “% Inhibition Progesterone Receptor E^−8” value was found to be 1%.

At androgen receptor, `CC1(C)CCC2(CCC3C4CCc5c(cc(Cl)c(OS(C)(=O)=O)c5Cl)C4CCC32C)OC1=O` (stereo not shown) [EM-1392-CS] gave an inhibition at 1 µM of 0% and an inhibition at 0.01 µM of 0%. For the same molecule, in the experiment on progesterone receptor, the “% Inhibition Progesterone Receptor E^−6” value is 2% and the “% Inhibition Progesterone Receptor E^−8” value was found to be 2%.

Consider `COc1ccc2c(c1)C(=O)CC1C2CC[C@@]2(C)C1CC[C@@]21CCC(C)(C)C(=O)O1` (stereo partly shown) [EM-1394], for which, at androgen receptor, 1 µM produced 0% inhibition and the inhibition at 0.01 µM turned out to be 0%. Further, in the experiment with progesterone receptor, the “% Inhibition Progesterone Receptor E^−6” value stood at 4% and the “% Inhibition Progesterone Receptor E^−8” value was found to be 2%.

At androgen receptor, `COCCOc1cc2c(cc1C#N)C1CC[C@@]3(C)C(CC[C@@]34CCC(C)(C)C(=O)O4)C1CC2` (stereo partly shown) [EM-1396] gave an inhibition at 1 µM of 2% and an inhibition at 0.01 µM of 0%. Further, in the experiment with progesterone receptor, the “% Inhibition Progesterone Receptor E^−6” value was 0% and the “% Inhibition Progesterone Receptor E^−8” value turned out to be 0%.

Regarding `CC1(C)CC[C@@]2(CCC3C4CCc5cc(C(=O)O)ccc5C4CC[C@@]32C)OC1=O` (stereo partly drawn) [EM-1401, 3-Carboxy-1,3,5(10)-estratrien-17(R)-spiro-2′-(5′,5′-dimethyl-6′-oxo)tetrahydropyran], on androgen receptor, the inhibition at 1 µM is 0% and the inhibition at 0.01 µM was 0%. In addition, in the experiment on progesterone receptor, the “% Inhibition Progesterone Receptor E^−6” value is reported as 0% and the “% Inhibition Progesterone Receptor E^−8” value is on record as 0%.

On androgen receptor, `COCCOc1cc2c(cc1C(=O)OC)C1CC[C@@]3(C)C(CC[C@@]34CCC(C)(C)C(=O)O4)C1CC2` (stereo partly drawn) [EM-1402-CS, 2-Carbomethoxy-3-(2″-methoxyethyloxy)-1,3,5(10)-estratrien 17(R)-spiro-2′-(5′,5′-dimethyl-6′-oxo)tetrahydropyran] gave an inhibition at 1 µM of 0% and an inhibition at 0.01 µM of 0%. In the experiment with progesterone receptor, the “% Inhibition Progesterone Receptor E^−6” value was 4% and the “% Inhibition Progesterone Receptor E^−8” value is listed as 2%.

At androgen receptor, `CN(C)C(=O)c1ccc2c(c1)CCC1C2CCC2(C)C1CCC21CCC(C)(C)C(=O)O1` (stereo not shown) [EM-1403] displayed an inhibition at 1 µM of 0% and an inhibition at 0.01 µM of 0%. Also, in the experiment with progesterone receptor, the “% Inhibition Progesterone Receptor E^−6” value was 0% and the “% Inhibition Progesterone Receptor E^−8” value was 0%.

At androgen receptor, `CC1(C)CC[C@@]2(CCC3C4CCc5cc(C(N)=O)ccc5C4CCC32C)OC1=O` (stereo partly shown) [EM-1404] yielded an inhibition at 1 µM of 0% and an inhibition at 0.01 µM of 0%. Further, in the experiment on progesterone receptor, the “% Inhibition Progesterone Receptor E^−6” value came out at 0% and the “% Inhibition Progesterone Receptor E^−8” value amounted to 0%.

On androgen receptor, `COCCOc1cc2c(cc1C(=O)O)C1CCC3(C)C(CCC34CCC(C)(C)C(=O)O4)C1CC2` [EM-1405, 2-Carboxy-3-(2″-methoxyethyloxy)-1,3,5(10)-estratrien-17(R)-spiro-2′-(5′,5′-dimethyl-6′-oxo)tetrahydropyran] displayed an inhibition at 1 µM of 0% and an inhibition at 0.01 µM of 0%. In addition, in the experiment with progesterone receptor, the “% Inhibition Progesterone Receptor E^−6” value was 0% and the “% Inhibition Progesterone Receptor E^−8” value was determined as 0%.

On androgen receptor, `CC1(C)CC[C@@]2(CCC3C4CCc5cc6oncc6cc5C4CC[C@@]32C)OC1=O` (stereo partly drawn) [EM-1407-CS, 1,3,5(10)-estratrien-(2,3-oximino)-17(R)-spiro-2′-(5′,5′-dimethyl-6′-oxo)tetrahydropyran] returned an inhibition at 1 µM of 0% and an inhibition at 0.01 µM of 0%. In the experiment with progesterone receptor, the “% Inhibition Progesterone Receptor E^−6” value worked out at 3% and the “% Inhibition Progesterone Receptor E^−8” value stood at 0%.

At androgen receptor, `COCCOc1ccc2c(c1)C(=O)CC1C2CCC2(C)C1CCC21CCC(C)(C)C(=O)O1` (stereo not shown) [EM-1408-CS] yielded an inhibition at 1 µM of 0% and an inhibition at 0.01 µM of 0%. For the same molecule, in the experiment with progesterone receptor, the “% Inhibition Progesterone Receptor E^−6” value is 0% and the “% Inhibition Progesterone Receptor E^−8” value is given as 0%.

Consider `COc1cc2c(cc1C)C1CCC3(C)C(CCC34CCC(C)(C)C(=O)O4)C1CC2` (stereo not shown) [EM-1412-CS], for which, on androgen receptor, the inhibition at 1 µM came to 0% and 0.01 µM produced 0% inhibition. Further, in the experiment on progesterone receptor, the “% Inhibition Progesterone Receptor E^−6” value was determined as 0% and the “% Inhibition Progesterone Receptor E^−8” value turned out to be 0%.

As a reminder, the inhibition is the percentage by which the read-out fell short of the control. Higher therefore signals a strong effect.
